In patent US9302999B2, “Substituted triazoles as herbicides” (E. I. DU PONT DE NEMOURS AND COMPANY, priority 2012, dated 2016):

Legend:
Type in all cases: in vivo
[1] = test system: pigweed (Amaranthus retroflexus); test: Test A pre-/postemergence: pigweed; settings: for Pigweed plant response rating: visual rating on 0 to 100 scale (0 no effect, 100 complete control), approximately ten days
Method in brief: (§1)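 Each species received preemergence soil-directed spraying and, at the same time, postemergence treatment of seedlings 2–10 cm tall. Formulation: non-phytotoxic solvent mixture including surfactant. Response assessed visually about ten days on, relative to untreated controls, 0–100 scale.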

[2] = test system: wheat (Triticum aestivum); test: Test A pre-/postemergence: wheat; settings: for Wheat plant response rating: visual rating on 0 to 100 scale (0 no effect, 100 complete control), approximately ten days
Method in brief: as §1

[3] = test system: barnyardgrass (Echinochloa crus-galli); test: Test B flooded paddy: barnyardgrass; settings: Flood; 250 g ai/ha; applied to paddy water at 2-leaf stage; visually evaluated after 13 to 15 days
Method in brief: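 Visual ratings on a 0–100 scale, where 0 means no effect and 100 means complete control, were assigned by comparison with controls 13 to 15 days after treatment. Compounds went into paddy water over 2-leaf plants flooded to 3 cm.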

[4] = test system: ryegrass, Italian (Italian ryegrass, Lolium multiflorum); test: Test C pre-/postemergence: ryegrass, Italian
Method in brief: (§2)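 Preemergence on seeds in loam/sand, postemergence on 2–18 cm (1–4-leaf) plants in peat-based medium; compounds in non-phytotoxic solvent with surfactant. After 13–15 days in greenhouse, visual rating versus controls, 0 (no effect) to 100 (complete control).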

[5] = test system: galium (catchweed bedstraw, Galium aparine); test: Test C pre-/postemergence: galium
Method in brief: as §2

corn (Zea mays) = test: Test C pre-/postemergence: corn
Method in brief: as §2

[6] = test system: large crabgrass (Digitaria sanguinalis); test: Test C pre-/postemergence: large crabgrass
Method in brief: as §2

[7] = test system: foxtail, giant (giant foxtail, Setaria faberii); test: Test C pre-/postemergence: foxtail, giant
Method in brief: as §2

[8] = test system: lambsquarters (Chenopodium album); test: Test C pre-/postemergence: lambsquarters
Method in brief: as §2

[9] = test system: morningglory (Ipomoea coccinea); test: Test C pre-/postemergence: morningglory
Method in brief: as §2

[10] = Postemergence, 125 g ai/ha, 0 to 100 scale, 0 is no effect, 100 is complete control
[11] = Preemergence, 125 g ai/ha, 0 to 100 scale where 0 is no effect and 100 is complete control
[12] = Preemergence, 500 g ai/ha, 0 to 100 scale (0 no effect, 100 complete control)
[13] = Postemergence, 31 g ai/ha, scale 0 to 100 (0 no effect, 100 complete control)
[14] = Postemergence, 62 g ai/ha, scale 0 to 100 (0 no effect, 100 complete control)
[15] = Postemergence, 125 g ai/ha, scale 0 to 100, 0 no effect, 100 complete control
[16] = Postemergence, 250 g ai/ha, scale 0 to 100
[17] = Preemergence, 31 g ai/ha, scale of 0 to 100, 0 is no effect, 100 is complete control
[18] = Preemergence, 62 g ai/ha, scale of 0 to 100, 0 is no effect, 100 is complete control
[19] = Preemergence, 125 g ai/ha, scale 0 to 100, 0 no effect, 100 complete control
[20] = Preemergence, 250 g ai/ha, scale 0 to 100, 0 no effect, 100 complete control

In the case of `CCc1nn(-c2ccc(F)cc2)nc1Cc1ccnc(C(F)(F)F)c1` [Compound 154], the “Plant response rating, Pigweed” value [1, 10] is reported as 100, the “Pigweed plant response rating” value ([1]; Postemergence, 500 g ai/ha) is reported as 100 and the “Plant response rating, Pigweed” value [1, 11] is reported as 100. For the same compound, the “Plant response rating, Pigweed” value [1, 12] was 100, the “Plant response rating, Wheat” value [2, 10] was 20 and the “Wheat plant response rating” value ([2]; Postemergence, 500 g ai/ha) was 50. The “Plant response rating, Wheat” value [2, 11] was 0, the “Plant response rating, Wheat” value [2, 12] was 20 and the “Plant response rating, Barnyardgrass (0 to 100 scale, 0 is no effect, 100 is complete control)” value [3] was 60. For the same compound, the “Plant response rating, Ryegrass, Italian” value [4, 13] was 5, the “Plant response rating, Ryegrass, Italian” value [4, 14] was 10 and the “Plant response rating, Ryegrass, Italian” value [4, 15] was 30. For the same compound, the “Plant response rating, Ryegrass, Italian” value [4, 16] was 35, the “Plant response rating, Ryegrass, Italian” value [4, 17] was 10 and the “Plant response rating, Ryegrass, Italian” value [4, 18] was 30. For the same compound, the “Plant response rating, Ryegrass, Italian” value [4, 19] was 90, the “Plant response rating, Ryegrass, Italian” value [4, 20] was 90 and the “Plant response rating, Galium” value [5, 13] was 45. For the same compound, the “Plant response rating, Galium” value [5, 14] was 60, the “Plant response rating, Galium” value [5, 15] was 70 and the “Plant response rating, Galium” value [5, 16] was 75. The “Plant response rating, Galium” value [5, 17] was 5, the “Plant response rating, Galium” value [5, 18] was 85 and the “Plant response rating, Galium” value [5, 19] was 85. For the same compound, the “Plant response rating, Galium” value [5, 20] was 100, the “Plant response rating, Corn” value (corn (Zea mays); [13]) was 20 and the “Plant response rating, Corn” value (corn (Zea mays); [14]) was 20. For the same compound, the “Plant response rating, Corn” value (corn (Zea mays); [16]) was 20, the “Plant response rating, Corn” value (corn (Zea mays); [17]) was 0 and the “Plant response rating, Corn” value (corn (Zea mays); [18]) was 5. The “Plant response rating, Corn” value (corn (Zea mays); [19]) was 10, the “Plant response rating, Corn” value (corn (Zea mays); [20]) was 15 and the “Plant response rating, Crabgrass, Large” value [6, 13] was 20. The “Plant response rating, Crabgrass, Large” value [6, 14] was 30, the “Plant response rating, Crabgrass, Large” value [6, 15] was 45 and the “Plant response rating, Crabgrass, Large” value [6, 16] was 70. For the same compound, the “Plant response rating, Crabgrass, Large” value [6, 17] was 90, the “Plant response rating, Crabgrass, Large” value [6, 18] was 100 and the “Plant response rating, Crabgrass, Large” value [6, 19] was 100. For the same compound, the “Plant response rating, Crabgrass, Large” value [6, 20] was 100, the “Plant response rating, Foxtail, Giant” value [7, 13] was 20 and the “Plant response rating, Foxtail, Giant” value [7, 14] was 20. The “Plant response rating, Foxtail, Giant” value [7, 15] was 55, the “Plant response rating, Foxtail, Giant” value [7, 16] was 75 and the “Plant response rating, Foxtail, Giant” value [7, 17] was 100. The “Plant response rating, Foxtail, Giant” value [7, 18] was 100, the “Plant response rating, Foxtail, Giant” value [7, 19] was 100 and the “Plant response rating, Foxtail, Giant” value [7, 20] was 100. For the same compound, the “Plant response rating, Lambsquarters” value [8, 13] was 75, the “Plant response rating, Lambsquarters” value [8, 14] was 98 and the “Plant response rating, Lambsquarters” value [8, 15] was 98. For the same compound, the “Plant response rating, Lambsquarters” value [8, 16] was 98, the “Plant response rating, Lambsquarters” value [8, 17] was 100 and the “Plant response rating, Lambsquarters” value [8, 18] was 100. The “Plant response rating, Lambsquarters” value [8, 19] was 100, the “Plant response rating, Lambsquarters” value [8, 20] was 100 and the “Plant response rating, Morningglory” value [9, 13] was 40. The “Plant response rating, Morningglory” value [9, 14] was 75, the “Plant response rating, Morningglory” value [9, 15] was 75 and the “Plant response rating, Morningglory” value [9, 16] was 98. For the same compound, the “Plant response rating, Morningglory” value [9, 17] was 0, the “Plant response rating, Morningglory” value [9, 18] was 5 and the “Plant response rating, Morningglory” value [9, 19] was 5. The “Plant response rating, Morningglory” value [9, 20] was 25.
`CCc1nn(-c2ccc(C(F)(F)F)cc2)nc1Cc1ccnc(C(F)(F)F)c1` [Compound 155] was tested, and the “Plant response rating, Pigweed” value [1, 10] was 100, the “Pigweed plant response rating” value ([1]; Postemergence, 500 g ai/ha) was 100 and the “Plant response rating, Pigweed” value [1, 11] was 100. The “Plant response rating, Pigweed” value [1, 12] was 100, the “Plant response rating, Wheat” value [2, 10] was 40 and the “Wheat plant response rating” value ([2]; Postemergence, 500 g ai/ha) was 80. For the same compound, the “Plant response rating, Wheat” value [2, 11] was 10, the “Plant response rating, Wheat” value [2, 12] was 70 and the “Plant response rating, Barnyardgrass (0 to 100 scale, 0 is no effect, 100 is complete control)” value [3] was 75. For the same compound, the “Plant response rating, Ryegrass, Italian” value [4, 13] was 35, the “Plant response rating, Ryegrass, Italian” value [4, 14] was 45 and the “Plant response rating, Ryegrass, Italian” value [4, 15] was 65. The “Plant response rating, Ryegrass, Italian” value [4, 16] was 70, the “Plant response rating, Ryegrass, Italian” value [4, 17] was 35 and the “Plant response rating, Ryegrass, Italian” value [4, 18] was 85. The “Plant response rating, Ryegrass, Italian” value [4, 19] was 85, the “Plant response rating, Ryegrass, Italian” value [4, 20] was 90 and the “Plant response rating, Galium” value [5, 13] was 70. The “Plant response rating, Galium” value [5, 14] was 75, the “Plant response rating, Galium” value [5, 15] was 80 and the “Plant response rating, Galium” value [5, 16] was 95. The “Plant response rating, Galium” value [5, 17] was 98, the “Plant response rating, Galium” value [5, 18] was 100 and the “Plant response rating, Galium” value [5, 19] was 100. For the same compound, the “Plant response rating, Galium” value [5, 20] was 100, the “Plant response rating, Corn” value (corn (Zea mays); [13]) was 25 and the “Plant response rating, Corn” value (corn (Zea mays); [14]) was 25. For the same compound, the “Plant response rating, Corn” value (corn (Zea mays); [15]) was 45, the “Plant response rating, Corn” value (corn (Zea mays); [16]) was 45 and the “Plant response rating, Corn” value (corn (Zea mays); [17]) was 5. For the same compound, the “Plant response rating, Corn” value (corn (Zea mays); [18]) was 5, the “Plant response rating, Corn” value (corn (Zea mays); [19]) was 10 and the “Plant response rating, Corn” value (corn (Zea mays); [20]) was 45. The “Plant response rating, Crabgrass, Large” value [6, 13] was 20, the “Plant response rating, Crabgrass, Large” value [6, 14] was 45 and the “Plant response rating, Crabgrass, Large” value [6, 15] was 75. For the same compound, the “Plant response rating, Crabgrass, Large” value [6, 16] was 85, the “Plant response rating, Crabgrass, Large” value [6, 17] was 100 and the “Plant response rating, Crabgrass, Large” value [6, 18] was 100. For the same compound, the “Plant response rating, Crabgrass, Large” value [6, 19] was 100, the “Plant response rating, Crabgrass, Large” value [6, 20] was 100 and the “Plant response rating, Foxtail, Giant” value [7, 13] was 15. The “Plant response rating, Foxtail, Giant” value [7, 14] was 45, the “Plant response rating, Foxtail, Giant” value [7, 15] was 75 and the “Plant response rating, Foxtail, Giant” value [7, 16] was 100. The “Plant response rating, Foxtail, Giant” value [7, 17] was 100, the “Plant response rating, Foxtail, Giant” value [7, 18] was 100 and the “Plant response rating, Foxtail, Giant” value [7, 19] was 100. For the same compound, the “Plant response rating, Foxtail, Giant” value [7, 20] was 100, the “Plant response rating, Lambsquarters” value [8, 13] was 80 and the “Plant response rating, Lambsquarters” value [8, 14] was 95. The “Plant response rating, Lambsquarters” value [8, 15] was 98, the “Plant response rating, Lambsquarters” value [8, 16] was 98 and the “Plant response rating, Lambsquarters” value [8, 17] was 90. The “Plant response rating, Lambsquarters” value [8, 18] was 100, the “Plant response rating, Lambsquarters” value [8, 19] was 100 and the “Plant response rating, Lambsquarters” value [8, 20] was 100. The “Plant response rating, Morningglory” value [9, 13] was 55, the “Plant response rating, Morningglory” value [9, 14] was 65 and the “Plant response rating, Morningglory” value [9, 15] was 65. The “Plant response rating, Morningglory” value [9, 16] was 98, the “Plant response rating, Morningglory” value [9, 17] was 10 and the “Plant response rating, Morningglory” value [9, 18] was 40. The “Plant response rating, Morningglory” value [9, 19] was 60 and the “Plant response rating, Morningglory” value [9, 20] was 90.
